In patent US10576096B2, “Tumor-selective combination therapy” (priority 2013, dated 2020):
≈ marks a conversion by molar mass, not a printed value. Where “and” joins values, the source holds several entries; their conditions need not be identical. Identical values can stand only once.

Key:
[1] = tested on: A549 NSCLC cells or MiaPaCa-2 pancreatic cancer cells; assay: Sensitivity enhancement: PARP1 inhibitors combined with β-lapachone or DNQ, relative survival; format: cell-based, human; conditions: 10 = one log kill, 100 = two logs kill; for Sensitivity Enhancement (change in survival) with Deoxynyboquinone (DNQ): nontoxic DNQ (0.02 μM A549, 0.025 μM MiaPaca-2) + optimal dose (15 μM) of PARP1 inhibitor; for Sensitivity Enhancement (change in survival) with β-Lapachone: nontoxic β-lapachone (3 μM A549, 2 μM Mia Paca2) + optimal dose (15 μM) of PARP1 inhibitor
Method: Mia PaCa-2 cells were treated for 2 hours with the inhibitors noted in FIG. 30 and then with DNQ+the inhibitors (all at 15 μM) for 2 hours.

BRCA1−/− CAPAN-1 cells = assay: AG014699 alone, synthetic lethality control; format: cell-based
[2] = tested on: A549 and Mia PaCa-2 cells; assay: AG014699 alone, lethality in BRCA1 wild-type cancer cells; format: cell-based; conditions: drug alone
Source text: FIGS. 33A-D. AG014699 enhances the NQO1-dependent lethality of ß-lapachone in A549 NSCLC cells.
AG014699 enhances the NQO1-dependent lethality of ß-lapachone in A549 NSCLC cells (FIG. 33).

PARP1 = assay: PAR formation (PARP1 inhibition) in cells treated with NQO1 bioactivatable drug plus inhibitor; format: cell-based; conditions: inhibitors at 15 μM
[3] = tested on: NOD/SCID mice injected with 3LL-Luc cells; assay: DNQ derivatives pilot study of maximum tolerated dose (MTD); conditions: 3 NOD/SCID mice
in vivo = conditions: NOD/SCID, mouse, iv
breast cancer cells = assay: IB-DNQ (DNQ87) lethality in breast cancer cells; format: cell-based; conditions: NQO1-dependent
Source text: It is effective against breast cancer cells in an NQO1-dependent manner, as well as triple-negative breast cancer cells (A-F, for various cell types).
Unlike β-lapachone (ß-lap), efficacy of DNQ87 increases in an NQO1-dependent manner and the therapeutic window is larger (FIG. 14). […] (C) PARP1 hyperactivation caused by DNQ87 exposure measured by PAR-PARP1 formation, highlighted by μ-calpain-mediated p53 cleavage (C) and atypical cleavage of PARP1 to ^˜60 kDa proteolytic fragments during cell death (D). DNQ87 also causes DNA lesions (DNA double strand breaks) in a delayed manner, monitored by gamma-H2AX, phosphorylation of ATM at ser1981, and phosphorylation of DNA-PKcs at site Thr1892 (FIG. 16).

[4] = Aqueous solubility in PBS pH 7.4 by LC-MS; format: physicochemical; conditions: pH 7.4 PBS, 30 min sonication, filtered
Method: The aqueous solubility of DNQ at pH 7.4 in phosphate buffered saline (PBS) was measured by LC-MS. DNQ was sonicated for 30 minutes in PBS then undissolved solid was removed by filtration through a 0.45 μm syringe filter and the filtrate was analyzed by LC-MS (λ=275 nm, ESI-TOF in negative mode). The optimal sonication time was determined by sonicating DNQ for 1, 5, 10, and 30 minutes. While the concentration of DNQ in solution increased substantially between 1, 5, and 10 minutes, there was only a minor difference between 10 and 30 minutes. During the 30 minute sonication the water bath warmed to 45° C. (samples were cooled to room temperature before filtration). A calibration curve was generated from 1-100 μM by dissolving DNQ in methanol to a concentration of 500 μM and making dilutions of this stock in 80:20 water:methanol. The calibration curve (measure by UV absorbance) was linear over this range; 1 μM was approximately the limit of detection. […] The solution was very pale yellow.

[5] = tested on: NOD/SCID mice injected with 3LL-Luc cells; conditions: mouse, in vivo, iv
[6] = Formulation of DNQ compounds in HPβCD (solubility, solution stability); format: physicochemical
Source text: This same neutral solution of DNQ in HPβCD cannot be made directly (i.e. without pH adjustment). […] The only proton on DNQ that might reasonably be deprotonated in aqueous base is the N—H. Although the acidity of the N—H bond of DNQ has not been measured, it has been measured for a derivative of DNQ and found to have a pKa of 8.0.
The protocol for formulating DNQ compounds in HPβCD is as follows: the DNQ compound is slurried in a 20% solution of HPβCD in pH 7.4 PBS and the pH is then increased by the addition of 10 M NaOH to induce dissolution of the DNQ compound. The pH is returned to pH 7.5-8.0 by the careful addition of 1 M HCl. A 3.3 mM solution of the DNQ compound can be made by this method which is stable at least 24 hours. This represents a 30-fold increase in solubility of DNQ over PBS alone. We initially chose a 20% HPβCD solution.

[7] = tested on: Mia Paca2 pancreatic cancer cells; assay: Methoxyamine plus ß-lapachone lethality (colony forming assays); format: cell-based; conditions: nonlethal doses of methoxyamine
Method: FIGS. 9A-F. Methoxyamine (MeOX) enhances β-lap-induced NQO1-driven lethality. Mia Paca-2 cells were treated with indicated doses of β-lap+/−MeOX (12 mM), or β-lap alone for 2 hours. Endpoints examined: (A) Colony forming assays show synergy of MeOX+ß-lap; (B) MeOX treatment modifies AP sites induced by β-lap in Mia Paca-2 cells; (C) MeOX enhances β-lap-induced ATP loss; (D) MeOX blocks ATP recovery after sublethal β-lap doses; (E) β-lap+MeOX co-treatment enhances γH2AX foci formation. […] Dicoumarol (DIC, 50 μM, 2 h) blocked synergy.
(§1) B and C, Methoxyamine (MeOX) is an AP-site modifying chemical that is nontoxic to >100 mM as measured by relative survival and ATP loss. Optimal concentrations in combination with NQO1 bioactivatable drugs are between 6-12 mM. FIG. 21 illustrates Proof of Principle studies. A. Methoxyamine (MeOX) augments ß-lapachone ß-lap)-induced lethality in MiaPaca2 pancreatic cancer cells. B. Addition of MeOX modifies AP sites and therefore decreases signal of AP site formation in ß-lap+MeOX exposed cells. MeOX dose was 12 mM, ß-lap Dose was 6 μM. C,D. XRCC1 is a scaffolding protein that enables base excision repair (BER). Elimination of XRCC1 causes elevated AP sites and DNA single strand breaks, at which PARP1 can bind and become activated/hyperactivated. Knockdown of XRCC1 (C) enhances the lethality of ß-lapachone treatment.

[8] = tested on: Mia Paca2 pancreatic cancer cells; assay: Methoxyamine alone: relative survival and ATP loss; format: cell-based
Method: FIGS. 20A-C. Determination of lethal vs. sublethal doses of methoxyamine (MeOX or MX, as indicated); A, MeOX with β-lapachone; B, MeOX; C, MeOX.
as §1

A549 NSCLC cells = assay: ß-lapachone nontoxic vs. lethal dose, 2 h; format: cell-based, human
Method: FIGS. 46A-B. DNA damage via combinatorial treatment. (A) A549 NSCLC cells were pre-treated with or without Rucaparib (AG014699) and then exposed to a nontoxic dose of ß-lapachone (3 μM) at the concentrations indicated with or without the same PARP1 inhibitor. Cells were also exposed to a lethal dose of ß-lapachone (8 μM). Cells were then analyzed by neutral comet assays and DNA damage graphed in (B).
A459 NSCLC cells were pretreated with 15 μM AG014699 for 2 hours, then exposed to the same concentration of AG014699+various concentrations of DNQ87 for 2 hours as indicated (FIG. 45). Cells were then washed free of drug and relative survival performed as previously described (Huang et al., Cancer Res., 2012). Cells treated in this manner by nontoxic doses of ß-lap show enhanced DNA lesion formation, equivalent to DNA lesions formed by a lethal dose of ß-lap (8 μM, 2 hours) (FIG. 46).

Mia PaCa-2 cells = assay: ß-lapachone lethal vs. sublethal doses, 2 h treatment; format: cell-based; conditions: listed as ß-lapachone
Method: MeOX, 12 mM; Dicoumarol, NQO1 inhibitor, 50 μM; ß-lapachone doses, indicated or 2 μM. For Mia Paca2 cells, 2-2.5 μM is sublethal, 6 μM is lethal. H2O2 dose was 500 μM, 2 h. All treatments were 2 h in duration. Cells were treated 2× with MeOX, as a 2 h pretreatment and then for 2 h in combination with ß-lap where applicable.
Addition of Methoxyamine (MeOX) prevents ATP recovery responses in ß-lap-treated Mia PaCa-2 cells at lethal and sublethal doses (FIG. 24). Lethal doses of ß-lapachone were 6 and 4 μM, whereas 3.0 and 2.5 μM are sublethal doses of ß-lapachone (ß-lap).

NQO1 = NQO1 (Homo sapiens, UniProt P15559); conditions: in two minutes; cited from earlier work
NQO1, sequence (P15559 whole entry): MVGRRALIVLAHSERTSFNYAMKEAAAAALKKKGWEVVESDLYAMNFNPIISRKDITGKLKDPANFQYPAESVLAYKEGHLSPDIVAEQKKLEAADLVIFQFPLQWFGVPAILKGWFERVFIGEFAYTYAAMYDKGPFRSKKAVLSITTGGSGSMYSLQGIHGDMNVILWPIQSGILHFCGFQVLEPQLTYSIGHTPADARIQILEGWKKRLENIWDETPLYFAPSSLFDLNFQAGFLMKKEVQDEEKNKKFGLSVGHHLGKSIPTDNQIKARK

[9] = tested on: MIA PaCa-2 tumor xenografts; assay: Antitumor efficacy in tumor xenografts; format: in vivo, mice; conditions: β-lap-HPβ-CD at 20 or 30 mg/kg, iv
Method: (A) Body weight changes of mice bearing orthotopic MIA PaCa-2 tumors. (B) Kaplan-Meier survival for pancreatic antitumor efficacy experiments described in (A). Log-rank analyses were performed comparing survival curves (***p<0.0001) for HPβ-CD vs. β-lap-HPβ-CD at 20 or 30 mg/kg, iv. Results are combined survival data from three similar experiments. (C) Bioluminescent images (BLI) of mice bearing spleen-implanted pancreas cancers before and after treatment with HPβ-CD or β-lap-HPβ-CD (Arq761) at 20 or 30 mg/kg, iv. (D) Quantification of pancreatic tumor burden. BLI (photons per second) were determined before and 12 days post-therapy with HPβ-CD or β-lap-HPβ-CD at 20 or 30 mg/kg, iv. Results are means, +SE (n=5). Student's t tests (***p<0.005) were performed comparing HPβ-CD vs. β-lap-HPβ-CD at 20 or 30 mg/kg, iv. V, Vehicle (HPβ-CD).
Altering BER or SSB repair can enhance NQO1 bioactivatable drug efficacy in a tumor-selective manner. siRNA-mediated knockdown of the Ogg1 glycosylase renders s-lap-treated pancreatic cancer cells resistant to ß-lapachone (FIG. 6), however NQO1 bioactivatable drugs cause SSBs and base lesions in a tumor-specific manner, thus they can be used to make DNA repair inhibitors tumor-selective (FIG. 7). PARP1 inhibitors synergize with NQO1 bioactivatable drugs for enhanced efficacy in NQO1+ cancer cells, such as pancreatic cancer cells (FIG. 8). […]

SMILES: C[C@]1(c2nc3c(C(N)=O)cccc3[nH]2)CCCN1 [ABT-888, Veliparib]
- Sensitivity Enhancement (change in survival) with Deoxynyboquinone (DNQ) [1]: 15
- Sensitivity Enhancement (change in survival) with β-Lapachone [1]: 10

SMILES: CN(C)Cc1ccc(-c2nc3cccc4c3n2CCNC4=O)cc1 [AG14361]
- Sensitivity Enhancement (change in survival) with Deoxynyboquinone (DNQ) [1]: 10
- Sensitivity Enhancement (change in survival) with β-Lapachone [1]: 5

SMILES: CNCc1ccc(-c2[nH]c3cc(F)cc4c3c2CCNC4=O)cc1 [AG-014699, Rucaparib]
- lethality of drug alone (BRCA1−/− CAPAN-1 cells): synthetic lethality
- response of BRCA1 wild-type cells to the PARP1 inhibitor alone [2]: completely resistant
- Sensitivity Enhancement (change in survival) with Deoxynyboquinone (DNQ) [1]: 100
- Sensitivity Enhancement (change in survival) with β-Lapachone [1]: 10

SMILES: O=C(c1cc(Cc2n[nH]c(=O)c3ccccc23)ccc1F)N1CCN(C(=O)C2CC2)CC1 [AZD2281, Olaparib]
- Sensitivity Enhancement (change in survival) with Deoxynyboquinone (DNQ) [1]: 20
- Sensitivity Enhancement (change in survival) with β-Lapachone [1]: 10

SMILES: NC(=O)c1ccc(I)c([N+](=O)[O-])c1 [BSI-201, Iniparib]
- Sensitivity Enhancement (change in survival) with Deoxynyboquinone (DNQ) [1]: 4
- Sensitivity Enhancement (change in survival) with β-Lapachone [1]: 3
- inhibition of PAR formation (PARP1): not an efficacious PARP1 inhibitor

SMILES: Cc1cc(=O)[nH]c2c1C(=O)c1c(C)cc(=O)n(CCC(C)(C)C)c1C2=O [Compound 9-251]
- Dead mice (5 IV.) ([3]; 20 mg/kg): 0
- MTD at 5 injections, 1x every other day (in vivo): 20 mg/kg

SMILES: CCCn1c2c(c(C)cc1=O)C(=O)c1c(C)cc(=O)[nH]c1C2=O [Compound 10-41]
- Dead mice (5 IV.) ([3]; 15 mg/kg): 3
- MTD at 5 injections, 1x every other day (in vivo): 7 mg/kg

SMILES: Cc1cc(=O)[nH]c2c1C(=O)c1c(C)cc(=O)n(CC(C)C)c1C2=O [Compound 87]
- effective doses relative to ß-lapachone and DNQ (breast cancer cells): works at much lower doses versus ß-lapachone and at doses equivalent to the parental DNQ compound
- Dead mice (5 IV.) ([3]; 14 mg/kg): 0
- MTD at 5 injections, 1x every other day (in vivo): ~16 mg/kg

SMILES: CCc1cc(=O)n(C)c2c1C(=O)c1c(C)cc(=O)[nH]c1C2=O [Compound 107]
- Dead mice (5 IV.) ([3]; 10 mg/kg): 1
- MTD at 5 injections, 1x every other day (in vivo): 8 mg/kg

SMILES: Cc1cc(=O)[nH]c2c1C(=O)c1c(C)cc(=O)n(C)c1C2=O [DNQ, Deoxynyboquinone]
- solubility in PBS [4]: 115 µM (≈ 32.7 µg/mL)
- Dead mice (5 IV.) ([3]; 7.5 mg/kg): 2
- MTD [5]: 6
- stability of HPβCD solution ([6]; 3.3 mM in 20% HPβCD): at least 24 hours
- increase in solubility over PBS alone ([6]; 20% HPβCD): 30 fold
- concentration of solution in HPβCD ([6]; 20% HPβCD in pH 7.4 PBS, pH raised with NaOH then returned to 7.5-8.0): 3300 µM
- concentration of solution in HPβCD ([6]; 40% HPβCD, extrapolated from linear increase with HPβCD): 6600 µM

SMILES: O=c1[nH]cnc2c1ncn2[C@@H]1O[C@H](CO)[C@@H](O)[C@H]1O [INO-1001]
- Sensitivity Enhancement (change in survival) with Deoxynyboquinone (DNQ) [1]: 10
- Sensitivity Enhancement (change in survival) with β-Lapachone [1]: 7

SMILES: CON [Methoxyamine, methoxyamine]
- lethality in combination with ß-lapachone [7]: synergistic lethality
- optimal concentration in combination with NQO1 bioactivatable drugs [8]: 6 to 12 mM
- nontoxic concentration ([8]; measured by relative survival and ATP loss): > 100 mM

SMILES: CC1(C)CCC2=C(O1)c1ccccc1C(=O)C2=O [β-Lapachone, β-lapachone]
- nontoxic dose (A549 NSCLC cells): 3 µM
- lethal dose (A549 NSCLC cells; 2 hours): 8 µM
- sublethal dose (Mia PaCa-2 cells): 2 to 2.5 µM and 3.0 µM and 2.5 µM
- superoxide generated per mole of compound (NQO1): ~120 mol
- antitumor efficacy [9]: significant antitumor efficacy
